Results published in paper PMC4583781, “Heteropentanuclear Oxalato-Bridged nd–4f (n=4, 5) Metal Complexes with NO Ligand: Synthesis, Crystal Structures, Aqueous Stability and Antiproliferative Activity” (Chemistry (Weinheim an Der Bergstrasse, Germany), 2015).

Key:
DLD-1 colon cancer model = tested on: DLD-1 colon cancer model; parameters: method as in PMID 16343446, PMID 17445775; details: cited from earlier work
[1] = tested on: MRC-5 cells (normal human fetal lung fibroblast); experiment: MTT assay, cytotoxicity in noncancerous MRC-5 cells; type: cell-based; details: 48 h treatment, 5000 cells per well, read-out: IC50 MRC-5 (5000 c per w)
Method: (§1) Human cervical carcinoma (HeLa), human alveolar basal adenocarcinoma (A549), and normal human fetal lung fibroblast cell line (MRC-5) were maintained as monolayer culture in the Roswell Park Memorial Institute (RPMI) 1640 nutrient medium (Sigma Chemicals Co, USA). RPMI 1640 nutrient medium was prepared in sterile ionized water, supplemented with penicillin (192 IU mL^−1), streptomycin (200 μg mL^−1), 4-(2-hydroxyethyl)piperazine-1-ethanesulfonic acid (HEPES) (25 mM), L-glutamine (3 mM) and 10 % of heat-inactivated fetal calf serum (FCS; pH 7.2). The cells were grown at 37 °C in 5 % CO2 and humidified air atmosphere, by twice weekly subculture.
(§2) Antiproliferative activity of the ruthenium and osmium complexes was determined using 3-(4,5-dimethylthiazol-yl)-2,5-diphenyltetrazolium bromide (MTT, Sigma–Aldrich) assay.[49] Cells were seeded into 96-well cell culture plates (Thermo Scientific Nunc), at a cell density of 3000 cells per well (HeLa), 7000 cells per well (A549), and 5000 cells per well (MRC-5), in 100 μL of culture medium. After 24 h of growth, cells were exposed to the serial dilutions of the tested complexes. Complexes were dissolved in 1 % DMSO: complex 1 at a concentration of 4 mM, complexes 2–5 at a concentration of 1 mM, complexes 6–9 at a concentration of 0.6 mM, as stocks immediately prior use, and afterwards diluted with nutrient medium to desired final concentrations (in range up to 200 μM). Each concentration was tested in triplicate. After incubation periods of 48 h, 20 μL of MTT solutions (5 mg mL^−1 in phosphate buffer solution, pH 7.2) were added to each well. Samples were incubated for 4 h at 37 °C, with 5 % CO2 in a humidified atmosphere. Formazan crystals were dissolved in 100 μL of 10 % sodium dodecyl sulfate (SDS). Absorbances were recorded after 24 h, on an ELISA reader (ThermoLabsystems Multiskan EX 200–240 V), at the wavelength of 570 nm. The IC50 values, defined as the concentrations of the compound causing 50 % cell growth inhibition, were estimated from the dose-response curves.
(§3) The antiproliferative activity of the ruthenium and osmium lanthanide complexes 1–9 was evaluated for 48 h of continuous drug action, using colorimetric MTT assay. The study was performed in two human neoplastic cell lines (HeLa, A549), and human fetal lung fibroblast cell line (MRC-5), which was used as noncancerous model for in vitro toxicity evaluation. The results are shown in Table 5 in terms of IC50 values for 48 h incubation period. IC50 values are calculated as mean values obtained from two to three independent experiments and are presented with their standard deviations.

[2] = tested on: HeLa cells (human cervical carcinoma); experiment: MTT assay, antiproliferative activity in HeLa cells; type: cell-based; details: 48 h treatment, 3000 cells per well, read-out: IC50 HeLa (3000 c per w)
Method: as §1, §2, §3

[3] = tested on: A549 cells (human alveolar basal adenocarcinoma); experiment: MTT assay, antiproliferative activity in A549 cells; type: cell-based; details: 48 h treatment, 7000 cells per well, read-out: IC50 A549 (7000 c per w)
Method: as §1, §2, §3

[4] = Stability in aqueous solution by UV/Vis spectroscopy; type: physicochemical; details: UV/Vis spectroscopy over 96 h
Method: Elemental analyses were performed by the microanalytical service of the Faculty of Chemistry of the University of Vienna on a Perkin–Elmer 2400 CHN Elemental Analyzer. UV/Vis spectra were recorded at 25 °C using a Perkin–Elmer Lambda 650 spectrometer equipped with an optical cell of 1 cm path-length in the wavelength range of 200 to 800 nm in combination with a Perkin–Elmer PTP-6 Peltier System. Electrospray ionization (ESI) mass spectrometry measurements were conducted on a Bruker HCT ion trap (Bruker Daltonics GmbH) by using methanol as a solvent. MIR spectra were recorded on a Perkin–Elmer 370 FTIR 2000 instrument using an ATR (attenuated total reflection) unit in the range of 4000–400 cm^−1. Phosphorescence emission spectra were recorded with a Horiba FluoroMax-4 spectrofluorimeter and the data were processed using the FluorEssence v3.5 software package.
The stability of the heteropentanuclear complexes 5 and 9 in aqueous solution has been investigated by UV/Vis spectroscopy over 96 h.

[5] = Stability of pentanuclear assembly in aqueous solution, IR comparison of residue; type: physicochemical; details: aqueous solution evaporated to dryness after standing 24 h in air
Method: To exclude immediate dissociation of the pentanuclear assembly with release of a metal–oxalate fragment an aqueous solution of 5 was evaporated to dryness after standing for 24 h in air and the IR spectra of the residue and freshly prepared compound 5 were compared.

[6] = tested on: cellular proteins of A549 cells; experiment: Ru/Os binding to cellular proteins by ICP-MS; type: cell-based, human; details: 24 h versus 6 h, 0.5×IC50, ICP-MS
[7] = tested on: cellular DNA of A549 cells; experiment: Ru/Os binding to cellular DNA by ICP-MS; type: cell-based, human; details: 6 h treatment, 0.5×IC50, ICP-MS
A549 cells = experiment: Total intracellular Ru/Os accumulation by ICP-MS; type: cell-based, human; details: 6 and 24 h, 0.5×IC50 of complexes 4 and 8, ICP-MS, Ru (4) relative to Os (8)

Row | Compound | Efficacy against DLD-1 colon cancer model in vivo (DLD-1 colon cancer model) | IC50 [1] | IC50 [2] | IC50 [3] | Stability in aqueous solution (change of optical spectra) [4] | IR spectra of residue versus freshly prepared compound [5] | Change of metal-protein binding with treatment prolongation [6] | Metal (Ru/Os) bound to cellular DNA [7] | Total intracellular accumulation of ruthenium versus osmium (A549 cells)
1 | N#C[S-].N#C[S-].N#C[S-].[La+3].c1cnc2c(c1)ccc1cccnc12.c1cnc2c(c1)ccc1cccnc12.c1cnc2c(c1)ccc1cccnc12 [La(phen)3(NCS)3] | highly effective | – | – | – | – | – | – | – | –
2 | (nBu4N)2[RuCl3(ox)(NO)] [complex 1] | – | 18.1 ± 6.5 µM | 55.9 ± 5.6 µM | 55 ± 1.6 µM | – | – | – | – | –
3 | (nBu4N)5[Dy(EtOH){RuCl3(μ-ox)(NO)}4] [complex 5] | – | 13.2 ± 0.4 µM | 20 ± 2.1 µM | 47 ± 6.7 µM | no change in the optical spectra observed | no differences in the spectra observed | – | – | –
4 | (nBu4N)5[Gd(EtOH){RuCl3(μ-ox)(NO)}4] [complex 3] | – | 11.1 ± 0.1 µM | 29.1 ± 0.8 µM | 26.5 ± 4 µM | – | – | – | – | –
5 | (nBu4N)5[Tb(EtOH){RuCl3(μ-ox)(NO)4}] [complex 4] | – | 11.9 ± 0.4 µM | 20 ± 2.4 µM | 22.4 ± 3.1 µM | – | – | increased to a great extent | 63.4(±1.8) pg metal μg^−1 DNA | five- to eightfold greater
6 | (nBu4N)5[Y{OsCl3(μ-ox)(NO)}4] [complex 6] | – | 115 ± 10.7 µM | 152 ± 24 µM | > 200 µM | – | – | – | – | –
7 | (nBu4N)5[Y{RuCl3(μ-ox)(NO)}4] [complex 2] | – | 12 ± 0.3 µM | 17.9 ± 0.4 µM | 56.3 ± 1.1 µM | – | – | – | – | –
